Assay results reported in PMC9959918 (2023).

Assays:
[1] = system: CPG-tel26 (DNA, G4) TTAGGGTTAGGGTTAGGGTTAGGGTT; assay: G4-CPG affinity assay, UV; conditions: 50 mM KCl, 10% DMSO, 10% ethanol, 60 μM compound, error ±2%
[2] = system: CPG-c-myc (DNA, G4) TGGGGAGGGTGGGGAGGGTGGGGAAGGTGGGGA; assay: G4-CPG affinity assay, UV; conditions: 50 mM KCl, 10% DMSO, 10% ethanol, 60 μM compound, error ±2%
[3] = system: CPG-ds27 (DNA, hairpin) CGCGAATTCGCGTTTCGCGAATTCGCG; assay: G4-CPG affinity assay, UV; conditions: 50 mM KCl, 10% DMSO, 10% ethanol, 60 μM compound, error ±2%
[4] = system: tel26 (DNA, G4) TTAGGGTTAGGGTTAGGGTTAGGGTT; assay: CD melting, 290 nm; conditions: 5 mM KCl, 5 mM KH2PO4; 5% DMSO, pH 7; 2 μM DNA, 20 μM compound (10 equiv.); Tm ± 1
[5] = system: Pu22T14T23 (Pu22) (DNA, G4) TGAGGGTGGGTAGGGTGGGTAA; assay: CD melting, 265 nm; conditions: 5 mM KCl, 5 mM KH2PO4; 5% DMSO, pH 7; 2 μM DNA, 20 μM compound (10 equiv.); Tm ± 1
[6] = system: ds12 (Dickerson dodecamer) (DNA, duplex) CGCGAATTCGCG; assay: CD melting, 253 nm; conditions: 5 mM KCl, 5 mM KH2PO4; 5% DMSO, pH 7; 2 μM DNA, 20 μM compound (10 equiv.); Tm ± 1
[7] = system: tel26 (DNA, G4) TTAGGGTTAGGGTTAGGGTTAGGGTT; assay: fluorescence titration, 2 μM ligand, equivalent-sites fit; conditions: 5 mM KCl, 5 mM KH2PO4; 5% DMSO, pH 7, 20 °C
[8] = system: Pu22T14T23 (Pu22) (DNA, G4) TGAGGGTGGGTAGGGTGGGTAA; assay: as above; conditions: 5 mM KCl, 5 mM KH2PO4; 5% DMSO, pH 7, 20 °C
[9] = system: ds12 (Dickerson dodecamer) (DNA, duplex) CGCGAATTCGCG; assay: as above; conditions: 5 mM KCl, 5 mM KH2PO4; 5% DMSO, pH 7, 20 °C

CC1(C)C=Cc2c(ccc3c2O[C@@H]2COc4cc5c(cc4[C@@H]2C3=O)OCO5)O1
Bound Ligand ([1]; nude CPG 8%): 8%
Bound Ligand ([2]; nude CPG 8%): 8%
Bound Ligand ([3]; nude CPG 8%): 8%

COc1cc2c(cc1OC)-c1c(OC)c(OC)cc3c1[C@H](C2)N(C)CC3
Bound Ligand ([1]; nude CPG 0%): 2%
Bound Ligand ([2]; nude CPG 0%): 1%
Bound Ligand ([3]; nude CPG 0%): 0%

COc1cc2c(cc1OC)-c1c3c(cc4c1[C@H](C2)N(C)CC4)OCO3
ΔTm [4]: +3 °C
ΔTm [5]: +5 °C
ΔTm [6]: +1 °C
Bound Ligand ([1]; nude CPG 0%): 67%
Bound Ligand ([2]; nude CPG 0%): 47%
Bound Ligand ([3]; nude CPG 0%): 30%
Kb [7]: (2.8 ± 1.2) × 10^6 M^−1
Kb [8]: (0.8 ± 0.5) × 10^6 M^−1
Kb [9]: (3.2 ± 0.4) × 10^5 M^−1

COc1cc2c(cc1OC)[C@@H]1C(=O)c3ccc4c(c3O[C@@H]1CO2)C=CC(C)(C)O4
Bound Ligand ([1]; nude CPG 0%): 0%
Bound Ligand ([2]; nude CPG 0%): 0%
Bound Ligand ([3]; nude CPG 0%): 0%

COc1ccc2c(c1OC)CN1CCc3cc4c(cc3[C@@H]1C2)OCO4
Bound Ligand ([3]; nude CPG 21%): 4%
